Assays:
[1] = test system: spontaneous hypertensive rats; test: Antihypertensive activity, oral administration to spontaneous hypertensive rats; assay type: in vivo, rat; settings: for ED50: Rattus norvegicus, read-out: Antihypertensive Activity ED50 mm Hg
Procedure: In Table 1, antihypertensive activity was determined by oral administration to spontaneous hypertensive rats, and the in vitro and in vivo α-adrenergic receptor blocking effect was determined by tests described following Table 1.

α-adrenergic receptor [2] = molecular target: T1, α-adrenergic receptor (Rattus norvegicus, UniProt P43140); test: Isolated rat seminal vesicle assay (inhibition of norepinephrine induced contractions; α-adrenergic receptor blocking effect in vitro); settings: for decrease in the sensitivity of isolated rat seminal vesicles to the stimulant activity of NE: 10 nanograms/ml; for NE ED50 with 95% Conf. Limits: NE ED50 in presence of test compound 10 nano/ml, control 0.89 (0.84-0.94)
T1 construct: Seminal vesicles were removed and transfered to a shallow dish containing modified Tyrode's solution; from tissue; host or cells: isolated seminal vesicle of male Long Evans rats
T1 sequence (P43140 1-466): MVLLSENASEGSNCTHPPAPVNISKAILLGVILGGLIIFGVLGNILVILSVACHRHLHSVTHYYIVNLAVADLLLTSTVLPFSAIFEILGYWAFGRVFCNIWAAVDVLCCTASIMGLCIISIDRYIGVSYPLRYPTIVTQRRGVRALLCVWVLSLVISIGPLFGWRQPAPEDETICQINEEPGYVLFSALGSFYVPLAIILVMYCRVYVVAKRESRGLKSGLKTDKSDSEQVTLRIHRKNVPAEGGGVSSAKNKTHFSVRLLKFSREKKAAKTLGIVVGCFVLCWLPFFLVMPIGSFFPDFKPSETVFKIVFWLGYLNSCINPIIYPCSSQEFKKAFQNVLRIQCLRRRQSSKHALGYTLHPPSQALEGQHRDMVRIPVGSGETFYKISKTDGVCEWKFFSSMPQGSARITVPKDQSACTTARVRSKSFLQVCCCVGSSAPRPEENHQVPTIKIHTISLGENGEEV
Procedure: (§1) In Table 1, antihypertensive activity was determined by oral administration to spontaneous hypertensive rats, and the in vitro and in vivo α-adrenergic receptor blocking effect was determined by tests described following Table 1. In the in vitro test, the inhibition by BL-5111 of norepinephrine induced contractions of rat seminal vesicles was measured; and in the in vivo test, the inhibition by BL-5111 of norepinephrine induced pressor responses in anesthetized dogs was measured.
Dangan et al, Int. […] Lietch et al, Brit.
Male Long Evans rats weighing approximately 300 g. were sacrificed by a sharp blow on the head. Seminal vesicles were removed and transfered to a shallow dish containing modified Tyrode's solution. The vesicles were emptied of their contents by squeezing them gently with a pair of forceps. Silk thread (4-0) was attached to both ends of the vesicle and it was suspended in a 20 ml. muscle chamber containing modified oxygenated Tyrode's solution (g./liter: NaCl 8, KCl 0.2, CaCl2 0.26, NaHCO3 1, Na2 HPO4 0.0575, glucose 0.5 and MgCl2 0.02). The bathing fluid was maintained at 37° C. with a thermostatically controlled isolated organ tissue bath. Contractions were recorded isometrically by means of a force displacement transducer and recordings were made with a Beckman RP Dynograph. Norepinephrine (NE) was added to the muscle chamber in volumes ranging from 0.1 to 0.4 ml. with a one ml. syringe attached to a 3 inch 20 gauge needle. NE and test compounds were dissolved in deionized water.
NE dose response curves were obtained alone and in the presence of test compounds. NE was allowed to remain in contact with the strip until a maximal contraction was obtained. The strip was then washed with the perfusion fluid for 15-30 seconds and the preparation was allowed to return to base line before a subsequent dose of NE was given. Increasing amounts of NE were injected into the bath in the same manner until a complete dose response was obtained.
The seminal vesicles used to obtain the control NE dose response were discarded and new preparations were placed in the tissue bath for evaluation of the test compound. The test compound was added directly to the perfusion fluid (10 nanograms/ml.) and the strips were allowed to remain in contact with the bathing media for at least 10 minutes before the NE dose response was determined.
ED50 values for NE were obtained by regression analysis as described by Finney, Probit. Analysis, 2d Ed., Cambridge (1964). A minimum of 4 strips and at least 4 doses were employed to calculate the regression lines. The ED50 value is defined as the concentration of NE which produces a contraction equal to 50% of the maximal contraction.

α-adrenergic receptor [3] = test: Anesthetized dog assay for α-adrenergic blocking agents (inhibition of norepinephrine induced pressor responses); assay type: in vivo
Procedure: as §1
Nash, C. B., Pharmacological Research Communications, 4:423, (1969) and Maxwell, R. A., Drill's Pharmacology in Medicine, (1971) p. 683 have shown that in anesthetized dogs α-adrenergic blocking agents antagonize the blood pressure elevating effects of intravenous norepinephrine. Thus, blood pressure responses to norepinephrine (NE) in anesthetized dogs was used as a comparative assay for α-adrenergic receptor blocking properties of drugs.
Experiments were done on mongrel dogs anesthetized with sodium pentobarbital, 30 mg./kg. iv. The left femoral artery was cannulated to record aortic blood pressure and a femoral vein was cannulated for administration of drugs. All animals underwent a bilateral vagotomy. A norepinephrine dose-response curve was obtained by administering increasing doses of iv. norepinephrine (0.01 - 1 μg/kg). […] Approximately 30 minutes later a dose-response curve was again established for iv. norepinephrine (0.01-10 μg/kg).

in vivo = settings: mouse, IV, mice
Solubility in water = assay type: physicochemical; settings: in words
Procedure: Compound I can exist in two polymorphic forms. In an earlier experiment similar to Experiment E with the exception that an excess of piperazine hydrobromide was used, a water soluble form (Isomorph A) of Compound I having a M.P. of 224°-228° C. was obtained. This product was recrystallized from nitromethane to give an analytical sample of Isomorph A having a M.P. of 227°-229° C.
A 200 mg. sample of Isomorph A was dissolved in 10 ml. of water at 20° C. The solution was heated at 60° C. for 3 minutes, then cooled to 35° C. and filtered. […] This product was termed Isomorph B of Compound I.

vascular smooth muscle = settings: in words; literature; cited from earlier work
α-adrenergic receptor [4] = settings: in words; literature; cited from earlier work
humans [5] = test: Clinical use as antihypertensive agent (literature); assay type: in vivo, human; settings: lower end of clinical daily dosage range (trimazosin 150 to 500 mg, prazosin 1.5 to 15 mg)
humans [6] = settings: clinical, in words; literature; cited from earlier work
[7] = 1 mg/kg, oral, spontaneous hypertensive rats
[8] = 3 mg/kg, oral, spontaneous hypertensive rats
[9] = 10 mg/kg, oral, spontaneous hypertensive rats
[10] = oral, spontaneous hypertensive rats
[11] = 10 nano/ml, isolated rat seminal vesicles

SMILES	% Blood Pressure Change [1, 7]	% Blood Pressure Change [1, 8]	% Blood Pressure Change [1, 9]	ED50 [1, 10]	Percent Change From Control (NE ED50) (α-adrenergic receptor [2]; [11])	decrease in the sensitivity of isolated rat seminal vesicles to the stimulant activity of NE (α-adrenergic receptor [2]; in words)	NE ED50 with 95% Conf. Limits (α-adrenergic receptor [2]; isolated rat seminal vesicles)	solubility in water (Solubility in water)	other results
COc1cc2nc(N3CCN(C(=O)c4nnc(SC)o4)CC3)nc(N)c2cc1OC.Cl [BL-5111, 4-Amino-6,7-dimethoxy-2-[4-(5-methylthio-1,3,4-oxadiazole-2-carbonyl)-piperazin-1-yl]-quinazoline hydrochloride]	-19%	-26%	-41%	2.3 mg/kg	4.5%	essentially inactive	0.93 (0.80-1.08) μg/ml	–	antihypertensive potency compared to prazosin ([1]; in words): comparable antihypertensive potency to prazosin; Antihypertensive Activity Ratio ([1]; relative to prazosin, oral, spontaneous hypertensive rats): 0.91; Activity Ratio Relative to Prazosin (α-adrenergic receptor [2]; Table II, 10 nano/ml, isolated rat seminal vesicles): 0.008; α-adrenergic blocking activity relative to prazosin (α-adrenergic receptor [2]; conclusion from isolated rat seminal vesicles, in words): less than one percent; times less active than prazosin in causing α-adrenergic blockade (α-adrenergic receptor [3]; 3 mg/kg iv, anesthetized dogs): approximately 30 times; α-Adrenergic Receptor Blocking Effect, In Vivo Activity Ratio (α-adrenergic receptor [3]; Table 1, relative to prazosin, intravenous, anesthetized dogs): 0.04; Activity Ratio Relative to Prazosin (α-adrenergic receptor [3]; Table III, 3 mg/kg iv, anesthetized dogs): 0.036; peripheral α-adrenergic blocking properties (α-adrenergic receptor [3]; in words, in vitro and in vivo tests together (Table 1)): little or none of the peripheral α-adrenergic blocking properties shown by prazosin; LD50 (in vivo): 45.7 mg/kg
COc1cc2nc(N3CCNCC3)nc(N)c2cc1OC [Isomorph A, 4-amino-6,7-dimethoxy-2-(1-piperazinyl)quinazoline]	–	–	–	–	–	–	–	water soluble	–
COc1cc2nc(N3CCNCC3)nc(N)c2cc1OC [Isomorph B, 4-amino-6,7-dimethoxy-2-(1-piperazinyl)quinazoline]	–	–	–	–	–	–	–	would not redissolve in boiling water	–
COc1cc2nc(N3CCN(C(=O)c4ccco4)CC3)nc(N)c2cc1OC [Prazosin, 2-[4-(2-furoyl)-piperazin-1-yl]-4-amino-6,7-dimethoxyquinazoline, reference compound]	-14%	-29%	-42%	2.1 mg/kg	578%	nearly a six fold decrease	6.03 (5.30-6.81) μg/ml	–	vasodilation effect on vascular smooth muscle (vascular smooth muscle): direct peripheral vasodilation effect on vascular smooth muscle; peripheral α-adrenergic receptor blockade (α-adrenergic receptor [4]): functional peripheral α-adrenergic receptor blockade
COc1cc2c(N)nc(N3CCN(C(=O)OCC(C)(C)O)CC3)nc2c(OC)c1OC [Trimazosin]	–	–	–	–	–	–	–	–	potency relative to prazosin (fold weaker) (humans [5]): 100 fold; activity in humans as an antihypertensive agent (humans [6]): active in humans as an antihypertensive agent

Reference: US4001238A, “1,3,4-Oxadiazole amides” (Bristol-Myers Company, priority 1976, dated 1977)
